Reference: the supplement of paper PMC11451515

Legend:
Conditions in all cases: 48 h
NOMO1 [1] = experiment: cell viability relative to DMSO control; higher = less cytotoxic
Outline: (§1)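 Viability is expressed as a percentage of DMSO wells within each plate, and cell-free wells serve as background. Seeding densities in the 1536-well plates (5 μl) were 500 cells/well for NOMO1 or SEM leukemia cells and 1000 cells/well for P12-Ichikawa. Each line was adapted for at least four passages in each medium. Library compounds in DMSO were pin-dosed at 47 μM to 0.79 nM (11 points, threefold), and CellTiter-Glo One luminescence was read after 48 h at 37°C.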

P12-Ichikawa = experiment: as above
Outline: as §1

SEM cells = experiment: as above
Outline: as §1

NOMO1 [2] = experiment: AUC of viability dose-response curve (% viability x log10 dose units); higher = less sensitive
Outline: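 Medium-adapted leukemia cells in 1536-well plates, at 500 or 1000 cells/well, were incubated for 48 h at 37°C with library compounds in DMSO at 11 threefold doses from 47 μM to 0.79 nM. CellTiter-Glo One luminescence normalised per plate to DMSO and cell-free wells was fitted with a four-parameter log-logistic model over log10 doses. Area under the curve was integrated from this fit by trapezoidal rule, with curves beyond full viability scaled and failed quality-control curves removed.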

C=CC(=O)Nc1cccc(Sc2nc(Nc3ccc(N4CCN(C)CC4)cc3)ncc2Cl)c1
cell viability [%]
Conditions | NOMO1 [1] | P12-Ichikawa | SEM cells
HPLM + 10% dialyzed FBS, 0.000781 µM | 102 | 105 | 91.4
HPLM + 10% dialyzed FBS, 0.00234 µM | 103 | 108 | 105
HPLM + 10% dialyzed FBS, 0.00702 µM | 101 | 109 | 113
HPLM + 10% dialyzed FBS, 0.0211 µM | 104 | 112 | 116
HPLM + 10% dialyzed FBS, 0.0632 µM | 110 | 107 | 114
HPLM + 10% dialyzed FBS, 0.19 µM | 109 | 121 | 116
HPLM + 10% dialyzed FBS, 0.569 µM | 127 | 122 | 104
HPLM + 10% dialyzed FBS, 1.71 µM | 114 | 118 | 86.4
HPLM + 10% dialyzed FBS, 5.12 µM | 117 | 115 | 71.1
HPLM + 10% dialyzed FBS, 15.4 µM | 98.5 | 118 | 86
HPLM + 10% dialyzed FBS, 46.1 µM | 24.9 | 22.2 | 3.8
RPMI 5 mM glucose + 10% FBS, 0.000781 µM | 97.3 | 95.7 | 53.5
RPMI 5 mM glucose + 10% FBS, 0.00234 µM | 104 | 107 | 68.7
RPMI 5 mM glucose + 10% FBS, 0.00702 µM | 121 | 113 | 81.6
RPMI 5 mM glucose + 10% FBS, 0.0211 µM | 104 | 121 | 69.1
RPMI 5 mM glucose + 10% FBS, 0.0632 µM | 101 | 116 | 82.7
RPMI 5 mM glucose + 10% FBS, 0.19 µM | 120 | 122 | 81.2
RPMI 5 mM glucose + 10% FBS, 0.569 µM | 109 | 120 | 91.7
RPMI 5 mM glucose + 10% FBS, 1.71 µM | 116 | 115 | 60.6
RPMI 5 mM glucose + 10% FBS, 5.12 µM | 113 | 124 | 41.3
RPMI 5 mM glucose + 10% FBS, 15.4 µM | 119 | 117 | 65.9
RPMI 5 mM glucose + 10% FBS, 46.1 µM | 8.7 | 19.2 | 2.06
RPMI 5 mM glucose + 10% dialyzed FBS, 0.000781 µM | 95.4 | 104 | 88.8
RPMI 5 mM glucose + 10% dialyzed FBS, 0.00234 µM | 101 | 115 | 98.2
RPMI 5 mM glucose + 10% dialyzed FBS, 0.00702 µM | 97.1 | 110 | 97.6
RPMI 5 mM glucose + 10% dialyzed FBS, 0.0211 µM | 92.1 | 114 | 99.9
RPMI 5 mM glucose + 10% dialyzed FBS, 0.0632 µM | 112 | 118 | 118
RPMI 5 mM glucose + 10% dialyzed FBS, 0.19 µM | 93 | 120 | 114
RPMI 5 mM glucose + 10% dialyzed FBS, 0.569 µM | 98.2 | 123 | 72.9
RPMI 5 mM glucose + 10% dialyzed FBS, 1.71 µM | 97.5 | 124 | 80.9
RPMI 5 mM glucose + 10% dialyzed FBS, 5.12 µM | 107 | 123 | 57.3
RPMI 5 mM glucose + 10% dialyzed FBS, 15.4 µM | 107 | 126 | 58.5
RPMI 5 mM glucose + 10% dialyzed FBS, 46.1 µM | 11.6 | 26.3 | 2.75

NOMO1 [2]
Conditions | AUC of viability dose-response curve
HPLM + 10% dialyzed FBS | 454
RPMI 5 mM glucose + 10% FBS | 455
RPMI 5 mM glucose + 10% dialyzed FBS | 456
